From patent US9695155B2, “Herbicidal substituted pyrimidinyloxy benzene compounds” (E. I. DU PONT DE NEMOURS AND COMPANY, priority 2013, dated 2017)

Key:
morningglory = assay: Test C preemergence; assay type: in vivo, Ipomoea coccinea; conditions: for Morningglory plant response rating: preemergence
In short: (§1)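 Plants were kept under greenhouse conditions for 13–15 days following spray. Pre-emergent application went to soil (loam–sand), post-emergent to foliage at 1–4 leaves. Evaluation: visual, percent control against untreated checks.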

giant foxtail = assay: Test C preemergence; assay type: in vivo, Setaria faberii; conditions: for Foxtail, Giant plant response rating: preemergence
In short: as §1

pigweed = assay: Test C preemergence; assay type: in vivo, Amaranthus retroflexus; conditions: for Pigweed plant response rating: preemergence
In short: as §1

ragweed [1] = assay: Test A postemergence; assay type: in vivo, Ambrosia elatior
In short: (§2)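 Greenhouse pot test, loam/sand soil. Formulation: non-phytotoxic solvent mix plus surfactant. Pre: directed spray onto soil after sowing. Post: plants at 1–2 leaf, 2–10 cm. Rated visually vs untreated controls at ~10 d, 0 (no effect) to 100 (complete control).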

blackgrass = assay: Test C preemergence; assay type: in vivo, Alopecurus myosuroides; conditions: for Blackgrass plant response rating: preemergence
In short: as §1

ragweed [2] = assay: Test C preemergence; assay type: in vivo, Ambrosia elatior; conditions: for Ragweed plant response rating: preemergence
In short: as §1

barnyardgrass = assay: Test C preemergence; assay type: in vivo, Echinochloa crus-galli; conditions: for Barnyardgrass plant response rating: preemergence
In short: as §1

ragweed [3] = assay: Test A preemergence; assay type: in vivo, Ambrosia elatior
In short: as §2

soybean = assay: Test C preemergence; assay type: in vivo, Glycine max; conditions: for Soybean plant response rating: preemergence
In short: as §1

oilseed rape = assay: Test C preemergence; assay type: in vivo, Brassica napus; conditions: for Oilseed Rape plant response rating: preemergence
In short: as §1

Italian ryegrass [4] = assay: Test A postemergence; assay type: in vivo, Lolium multiflorum
In short: as §2

Italian ryegrass [5] = assay: Test C preemergence; assay type: in vivo, Lolium multiflorum; conditions: for Ryegrass, Italian plant response rating: preemergence
In short: as §1

corn = assay: Test C preemergence; assay type: in vivo, Zea mays; conditions: for Corn plant response rating: preemergence
In short: as §1

large (Lg) crabgrass = assay: Test C preemergence; assay type: in vivo, Digitaria sanguinalis; conditions: for Crabgrass, Large plant response rating: preemergence
In short: as §1

velvetleaf = assay: Test C preemergence; assay type: in vivo, Abutilon theophrasti; conditions: for Velvetleaf plant response rating: preemergence
In short: as §1

yellow nutsedge = assay: Test C preemergence; assay type: in vivo, Cyperus esculentus; conditions: for Nutsedge, Yellow plant response rating: preemergence
In short: as §1

lambsquarters = assay: Test C preemergence; assay type: in vivo, Chenopodium album; conditions: for Lambsquarters plant response rating: preemergence
In short: as §1

galium = assay: Test A postemergence; assay type: in vivo, Galium aparine
In short: as §2

[6] = 16 g ai/ha, scale 0 to 100 (0 no effect, 100 complete control)
[7] = 125 g ai/ha, scale 0 (no effect) to 100 (complete control)
[8] = Preemergence, 62 g ai/ha, scale 0 to 100, 0 no effect, 100 complete control
[9] = 125 g ai/ha, 0 to 100 scale, 0 no effect, 100 complete control
[10] = 500 g ai/ha, 0 to 100 scale where 0 is no effect and 100 is complete control

With N#Cc1cn(-c2c(C#N)cccc2Oc2ncc(Cl)cn2)nn1 [Compound 273] the “Morningglory plant response rating” value (morningglory; [6]) was 5, the “Morningglory plant response rating” value (morningglory; [7]) was 85 and the “Plant response rating, Morningglory” value (morningglory; [8]) was 55. The “Foxtail, Giant plant response rating” value (giant foxtail; [6]) was 0, the “Foxtail, Giant plant response rating” value (giant foxtail; [7]) was 90 and the “Plant response rating, Foxtail, Giant” value (giant foxtail; [8]) was 75. The “Pigweed plant response rating” value (pigweed; [6]) was 55, the “Pigweed plant response rating” value (pigweed; [7]) was 100 and the “Plant response rating, Pigweed” value (pigweed; [8]) was 100. For the same molecule, the “Plant response rating, Ragweed” value (ragweed [1]; [9]) was 40, the “Plant response rating, Ragweed” value (ragweed [1]; [10]) was 90 and the “Blackgrass plant response rating” value (blackgrass; [6]) was 0. For the same molecule, the “Blackgrass plant response rating” value (blackgrass; [7]) was 70, the “Plant response rating, Blackgrass” value (blackgrass; [8]) was 5 and the “Ragweed plant response rating” value (ragweed [2]; [6]) was 10. For the same molecule, the “Ragweed plant response rating” value (ragweed [2]; [7]) was 85, the “Plant response rating, Ragweed” value (ragweed [2]; [8]) was 55 and the “Barnyardgrass plant response rating” value (barnyardgrass; [6]) was 0. The “Barnyardgrass plant response rating” value (barnyardgrass; [7]) was 85, the “Plant response rating, Barnyardgrass” value (barnyardgrass; [8]) was 25 and the “Ragweed plant response rating (0 to 100 scale)” value (ragweed [3]; 125 g ai/ha) was 70. The “Ragweed plant response rating” value (ragweed [3]; [10]) was 80, the “Soybean plant response rating” value (soybean; [6]) was 5 and the “Soybean plant response rating” value (soybean; [7]) was 65. The “Plant response rating, Soybean” value (soybean; [8]) was 40, the “Oilseed Rape plant response rating” value (oilseed rape; [6]) was 0 and the “Oilseed Rape plant response rating” value (oilseed rape; [7]) was 100. For the same molecule, the “Plant response rating, Oilseed Rape” value (oilseed rape; [8]) was 80, the “Plant response rating, Ryegrass, Italian” value (Italian ryegrass [4]; [9]) was 50 and the “Plant response rating, Ryegrass, Italian” value (Italian ryegrass [4]; [10]) was 80. For the same molecule, the “Ryegrass, Italian plant response rating” value (Italian ryegrass [5]; [6]) was 0, the “Ryegrass, Italian plant response rating” value (Italian ryegrass [5]; [7]) was 60 and the “Plant response rating, Ryegrass, Italian” value (Italian ryegrass [5]; [8]) was 0. The “Corn plant response rating” value (corn; [6]) was 0, the “Corn plant response rating” value (corn; [7]) was 35 and the “Plant response rating, Corn” value (corn; [8]) was 45. For the same molecule, the “Crabgrass, Large plant response rating” value (large (Lg) crabgrass; [6]) was 90, the “Crabgrass, Large plant response rating” value (large (Lg) crabgrass; [7]) was 100 and the “Plant response rating, Crabgrass, Large” value (large (Lg) crabgrass; [8]) was 95. For the same molecule, the “Velvetleaf plant response rating” value (velvetleaf; [6]) was 10, the “Velvetleaf plant response rating” value (velvetleaf; [7]) was 85 and the “Plant response rating, Velvetleaf” value (velvetleaf; [8]) was 85. For the same molecule, the “Nutsedge, Yellow plant response rating” value (yellow nutsedge; [6]) was 0, the “Nutsedge, Yellow plant response rating” value (yellow nutsedge; [7]) was 35 and the “Plant response rating, Nutsedge, Yellow” value (yellow nutsedge; [8]) was 5. The “Lambsquarters plant response rating” value (lambsquarters; [6]) was 35, the “Lambsquarters plant response rating” value (lambsquarters; [7]) was 100 and the “Plant response rating, Lambsquarters” value (lambsquarters; [8]) was 100. For the same molecule, the “Plant response rating, Galium” value (galium; [9]) was 80 and the “Plant response rating, Galium” value (galium; [10]) was 100.
